Test [1] deals with Replicase polyprotein 1ab (Severe acute respiratory syndrome coronavirus 2, UniProt P0DTD1). Put plainly: Inhibition of SARS Cov-2 papain-like protease extracted form Escherichia coli Rosetta (DE3) using fluorogenic substrate RLRGG-AMC assessed as inhibition rate by measuring fluorescent signal incubated for 30 mins.
Test [2] deals with Replicase polyprotein 1ab (Severe acute respiratory syndrome coronavirus 2) (UniProt P0DTD1). Put plainly: Inhibition of SARS Cov-2 papain-like protease extracted form Escherichia coli Rosetta (DE3) using fluorogenic substrate RLRGG-AMC assessed as inhibition rate by measuring fluorescent signal at 4 uM incubated for 30 mins relative to control.

The structures appear in SMILES notation.

As to `Cc1ccc(NC2CNC2)cc1C(=O)N[C@H](C)c1cccc(-c2ccc(CN3CC[C@@H](C(=O)O)C3)s2)c1`, the IC50 (as a rule, the midpoint of a concentration-inhibition curve) in test [1] was 270 nM.

With `Cc1ccc(NC(=O)c2ccnc(O)c2)cc1C(=O)N[C@H](C)c1cccc2ccccc12`, in test [2], the inhibition (usually how much of the control response was suppressed) is 74%.

In the case of `COC(=O)[C@@H](CCC(=O)OC(C)(C)C)NCc1ccc(-c2cccc([C@@H](C)NC(=O)c3cc(N)ccc3C)c2)s1` (racemic), in test [2], the inhibition worked out at 81%. Besides, the IC50 in test [1] came out at 4710 nM.

Regarding `Cc1ccc(NCc2ccc(CC(=O)O)cc2)cc1C(=O)N[C@H](C)c1cccc2ccccc12`, the inhibition result in test [2] was “Active; Compound Showed Weak Inhibitory Effect”.

Consider `Cc1ccc(N)cc1C(=O)N[C@H](C)c1cccc(-c2ccc(C=O)s2)c1`, for which the inhibition in test [2] is 30%.

For `Cc1ccc(NC(=O)c2cccs2)cc1C(=O)N[C@H](C)c1cccc2ccccc12`, in test [2], the inhibition entry is “Active; Compound Showed Weak Inhibitory Effect”.

Take `CCOC(=O)CCCNCc1ccc(-c2cccc([C@@H](C)NC(=O)c3cc(N)ccc3C)c2)s1`: the inhibition result in test [2] is “Active; Compound Showed Weak Inhibitory Effect”.

As for `C[C@@H](NC(=O)c1cc(N)ccc1O)c1cccc2ccccc12`, the inhibition in test [2] is 6%.

For `Cc1ccc(NC(=O)Oc2ccc([N+](=O)[O-])cc2)cc1C(=O)N[C@H](C)c1cccc2ccccc12`, the inhibition in test [2] came out at 27%.

Regarding `Cc1ccc(N)cc1C(=O)N[C@H](C)c1cccc2ccccc12`, the inhibition in test [2] was found to be 68%.

For the molecule `CCOC(=O)[C@@H]1CCN(Cc2ccc(-c3cccc([C@@H](C)NC(=O)c4cc(NC5CNC5)ccc4C)c3)s2)C1`, the IC50 in test [1] was found to be 1940 nM.

For `Cc1ccc(NC(=O)c2cc(Br)cnc2Cl)cc1C(=O)N[C@H](C)c1cccc2ccccc12`, the inhibition in test [2] amounted to 19%.

Turning to `COC(=O)Cc1ccc(CNc2ccc(C)c(C(=O)N[C@H](C)c3cccc4ccccc34)c2)cc1`, the inhibition in test [2] is 21%. Besides, the IC50 in test [1] is 2910 nM.

Consider `COc1ccc([N+](=O)[O-])c(C(=O)Nc2ccc(C)c(C(=O)N[C@H](C)c3cccc4ccccc34)c2)c1`, for which the inhibition in test [2] is 53%.

For the molecule `Cc1ccc(NC(=O)c2cccnc2O)cc1C(=O)N[C@H](C)c1cccc2ccccc12`, the inhibition entry in test [2] is reported as “Active; Compound Showed Weak Inhibitory Effect”.

Regarding `Cc1ccc(NC(=O)c2cc(Br)cnc2O)cc1C(=O)N[C@H](C)c1cccc2ccccc12`, the inhibition result in test [2] was “Active; Compound Showed Weak Inhibitory Effect”.

On to `Cc1ccc(NC(=O)c2ccc(Cl)s2)cc1C(=O)N[C@H](C)c1cccc2ccccc12`, for which the inhibition in test [2] was determined as 13%. Moreover, the IC50 in test [1] is more than 20000 nM.

For `CC[C@@H](C)[C@@H](NC(=O)c1ccc(-c2cccc([C@@H](C)NC(=O)c3cc(N)ccc3C)c2)s1)C(=O)OC`, in test [2], the inhibition turned out to be 73%. Moreover, in test [1], the IC50 is 2720 nM.

In the case of `CCOC(=O)CCCNCc1ccc(-c2cccc([C@@H](C)NC(=O)c3cc(NC4CNC4)ccc3C)c2)s1`, the IC50 in test [1] was 250 nM.

(Values after ChEMBL document CHEMBL6103536, “Chemical Space Profiling of SARS-CoV-2 PLpro Using DNA-Encoded Focused Libraries” (ACS Med Chem Lett, 2024).)
